Patent US20240116920A1 (priority 2020, published 2024)

How the values were obtained:
JAK1/STAT3 signaling = experiment: Immunobit cell-based pSTAT3 and pSTAT5 immunoassay; set-up: species or system human
JAK3 = molecular target: T1, JAK3 (Homo sapiens, UniProt P52333); experiment: biochemical
T1 sequence (P52333 1-1124): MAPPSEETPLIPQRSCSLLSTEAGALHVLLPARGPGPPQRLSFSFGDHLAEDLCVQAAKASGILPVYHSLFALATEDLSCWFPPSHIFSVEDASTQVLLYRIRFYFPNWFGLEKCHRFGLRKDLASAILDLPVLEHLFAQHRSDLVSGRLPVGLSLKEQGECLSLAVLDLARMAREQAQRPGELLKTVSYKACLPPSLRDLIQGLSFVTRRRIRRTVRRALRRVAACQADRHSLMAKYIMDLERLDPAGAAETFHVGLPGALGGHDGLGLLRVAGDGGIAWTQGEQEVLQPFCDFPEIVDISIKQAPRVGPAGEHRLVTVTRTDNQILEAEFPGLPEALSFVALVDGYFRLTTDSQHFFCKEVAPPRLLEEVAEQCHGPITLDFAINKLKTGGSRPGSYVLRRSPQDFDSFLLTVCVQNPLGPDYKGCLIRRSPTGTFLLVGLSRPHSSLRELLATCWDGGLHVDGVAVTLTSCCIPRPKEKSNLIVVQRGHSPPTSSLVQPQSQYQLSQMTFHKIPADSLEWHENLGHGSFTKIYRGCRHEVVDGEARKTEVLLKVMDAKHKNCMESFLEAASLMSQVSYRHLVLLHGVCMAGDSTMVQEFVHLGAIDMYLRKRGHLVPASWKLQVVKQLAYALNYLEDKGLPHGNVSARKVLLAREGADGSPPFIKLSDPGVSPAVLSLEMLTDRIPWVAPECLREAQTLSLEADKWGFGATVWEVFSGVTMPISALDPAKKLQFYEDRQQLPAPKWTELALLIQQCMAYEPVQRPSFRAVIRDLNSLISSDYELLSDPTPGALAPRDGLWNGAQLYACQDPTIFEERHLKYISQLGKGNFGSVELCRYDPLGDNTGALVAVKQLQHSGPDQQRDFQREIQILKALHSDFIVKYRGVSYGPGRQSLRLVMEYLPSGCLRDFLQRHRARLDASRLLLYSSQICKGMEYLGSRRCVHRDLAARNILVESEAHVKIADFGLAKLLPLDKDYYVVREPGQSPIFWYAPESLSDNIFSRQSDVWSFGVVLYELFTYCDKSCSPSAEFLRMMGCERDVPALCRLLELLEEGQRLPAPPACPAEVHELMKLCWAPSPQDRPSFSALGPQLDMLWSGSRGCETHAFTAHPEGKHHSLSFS

JAK2 = JAK2 (Homo sapiens, UniProt O60674); experiment: biochemical
TYK2 = TYK2 (Homo sapiens, UniProt P29597); experiment: biochemical
[1] = tested on: LX-2 human hepatic stellate cells; experiment: TGF-β-induced LX-2 cell proliferation (CCK8); format: cell-based

JAK2, sequence (O60674 whole entry): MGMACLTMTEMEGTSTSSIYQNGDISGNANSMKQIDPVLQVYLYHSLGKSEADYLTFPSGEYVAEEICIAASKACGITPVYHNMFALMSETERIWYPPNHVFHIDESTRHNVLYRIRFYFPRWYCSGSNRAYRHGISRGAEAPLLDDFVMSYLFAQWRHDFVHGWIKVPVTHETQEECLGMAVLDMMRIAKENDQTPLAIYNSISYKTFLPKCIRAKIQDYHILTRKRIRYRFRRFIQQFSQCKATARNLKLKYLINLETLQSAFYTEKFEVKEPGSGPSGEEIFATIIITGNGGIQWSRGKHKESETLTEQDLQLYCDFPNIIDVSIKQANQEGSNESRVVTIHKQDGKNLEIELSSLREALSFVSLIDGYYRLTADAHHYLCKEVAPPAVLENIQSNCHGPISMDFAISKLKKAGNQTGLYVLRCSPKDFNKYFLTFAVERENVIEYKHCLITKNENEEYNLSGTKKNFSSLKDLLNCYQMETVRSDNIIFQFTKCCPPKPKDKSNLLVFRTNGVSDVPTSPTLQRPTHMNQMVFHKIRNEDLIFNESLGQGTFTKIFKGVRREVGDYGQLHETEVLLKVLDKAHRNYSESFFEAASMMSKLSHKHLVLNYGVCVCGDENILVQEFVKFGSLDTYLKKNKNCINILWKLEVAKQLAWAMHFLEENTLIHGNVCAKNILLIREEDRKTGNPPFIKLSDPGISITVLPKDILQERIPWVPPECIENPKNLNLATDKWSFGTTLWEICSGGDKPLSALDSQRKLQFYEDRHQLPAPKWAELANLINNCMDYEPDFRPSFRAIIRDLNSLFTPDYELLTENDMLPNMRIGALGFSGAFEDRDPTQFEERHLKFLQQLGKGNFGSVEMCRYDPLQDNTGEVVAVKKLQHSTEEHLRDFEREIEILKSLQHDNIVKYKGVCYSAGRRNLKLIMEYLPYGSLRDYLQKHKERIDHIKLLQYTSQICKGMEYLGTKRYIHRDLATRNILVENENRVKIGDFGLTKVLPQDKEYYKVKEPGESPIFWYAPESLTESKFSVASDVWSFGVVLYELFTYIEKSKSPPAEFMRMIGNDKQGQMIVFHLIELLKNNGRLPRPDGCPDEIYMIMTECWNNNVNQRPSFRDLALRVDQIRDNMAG
TYK2, sequence (P29597 whole entry): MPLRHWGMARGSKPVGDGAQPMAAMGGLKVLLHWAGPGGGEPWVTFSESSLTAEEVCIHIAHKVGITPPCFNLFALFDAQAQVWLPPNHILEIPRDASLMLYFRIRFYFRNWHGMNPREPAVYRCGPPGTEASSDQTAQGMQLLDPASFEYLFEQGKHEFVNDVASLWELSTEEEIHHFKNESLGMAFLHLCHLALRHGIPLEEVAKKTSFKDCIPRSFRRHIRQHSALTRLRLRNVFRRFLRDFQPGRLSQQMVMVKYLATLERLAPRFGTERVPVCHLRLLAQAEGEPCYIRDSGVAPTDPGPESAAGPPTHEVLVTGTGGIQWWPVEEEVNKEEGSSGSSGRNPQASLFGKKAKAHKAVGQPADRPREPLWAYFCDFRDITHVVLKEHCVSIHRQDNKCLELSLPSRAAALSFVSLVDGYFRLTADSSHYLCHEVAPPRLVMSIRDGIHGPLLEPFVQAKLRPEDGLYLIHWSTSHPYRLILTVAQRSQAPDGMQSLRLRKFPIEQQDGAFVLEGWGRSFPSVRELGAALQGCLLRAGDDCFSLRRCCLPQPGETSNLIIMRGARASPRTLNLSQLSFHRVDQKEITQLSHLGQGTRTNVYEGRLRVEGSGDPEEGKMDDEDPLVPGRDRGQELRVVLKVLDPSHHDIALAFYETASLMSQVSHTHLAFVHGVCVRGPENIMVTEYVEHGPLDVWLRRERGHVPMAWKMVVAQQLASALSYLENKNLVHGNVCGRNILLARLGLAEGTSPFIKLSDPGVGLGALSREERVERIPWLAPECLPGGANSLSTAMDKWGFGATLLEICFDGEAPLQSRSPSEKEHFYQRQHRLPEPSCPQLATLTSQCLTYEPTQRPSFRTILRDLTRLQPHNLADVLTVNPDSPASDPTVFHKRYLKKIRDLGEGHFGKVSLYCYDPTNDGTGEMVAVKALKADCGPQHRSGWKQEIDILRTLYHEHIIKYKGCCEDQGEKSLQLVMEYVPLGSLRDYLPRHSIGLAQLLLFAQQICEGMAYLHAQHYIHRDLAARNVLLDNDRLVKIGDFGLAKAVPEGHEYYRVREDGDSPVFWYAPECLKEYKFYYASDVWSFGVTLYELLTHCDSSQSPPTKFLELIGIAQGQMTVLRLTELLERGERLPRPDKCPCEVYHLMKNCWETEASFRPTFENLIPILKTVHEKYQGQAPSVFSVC

For `O=C(Nc1nc2cccc(-c3ccc(CN4CCS(=O)(=O)CC4)cc3)n2n1)C1CC1` [filgotinib], the “effect on JAK/STAT signaling (pSTAT3, pSTAT5)” value (JAK1/STAT3 signaling) was “reduced pSTAT3 and pSTAT5, but with less effect than 31g”.

Compound `CNC(=O)c1cnc2[nH]ccc2c1N[C@@H]1CCN(Cc2cnc(C(F)(F)F)nc2)[C@H](C)C1` (racemic) [compound 49] has an IC50 (JAK3) of 8.39 nM, an IC50 (JAK2) of 8.78 nM and an IC50 (TYK2) of 36.9 nM.

In the case of `COC(=O)c1ccc2c(c1)NC(=O)/C2=C(\Nc1ccc(N(C)C(=O)CN2CCN(C)CC2)cc1)c1ccccc1` [nintedanib], the “inhibitory effect on LX-2 proliferation induced by TGF-β” value ([1]; LX-2, TGF-β-induced, CCK8) is reported as “dose-dependent inhibitory effects”, the “inhibitory effect on LX-2 cell growth versus tofacitinib or filgotinib” value ([1]; incubation with TGF-β for 72 h) is reported as “superior to those of tofacitinib or filgotinib” and the “effect on JAK/STAT signaling (pSTAT3, pSTAT5)” value (JAK1/STAT3 signaling) is reported as “did not affect the JAK/STAT pathway”.
